Key:
Assay in all cases: biochemical
Set-up in all cases: SelectScreen Z'-LYTE purified kinase panel, per cent inhibition, mean of two points
Details in all cases: (μM)=Km app
MAPKAPK5 (PRAK) = biological target: T1, MAPKAPK5 (PRAK) (Homo sapiens, UniProt Q8IW41)
T1 sequence (Q8IW41 1-473): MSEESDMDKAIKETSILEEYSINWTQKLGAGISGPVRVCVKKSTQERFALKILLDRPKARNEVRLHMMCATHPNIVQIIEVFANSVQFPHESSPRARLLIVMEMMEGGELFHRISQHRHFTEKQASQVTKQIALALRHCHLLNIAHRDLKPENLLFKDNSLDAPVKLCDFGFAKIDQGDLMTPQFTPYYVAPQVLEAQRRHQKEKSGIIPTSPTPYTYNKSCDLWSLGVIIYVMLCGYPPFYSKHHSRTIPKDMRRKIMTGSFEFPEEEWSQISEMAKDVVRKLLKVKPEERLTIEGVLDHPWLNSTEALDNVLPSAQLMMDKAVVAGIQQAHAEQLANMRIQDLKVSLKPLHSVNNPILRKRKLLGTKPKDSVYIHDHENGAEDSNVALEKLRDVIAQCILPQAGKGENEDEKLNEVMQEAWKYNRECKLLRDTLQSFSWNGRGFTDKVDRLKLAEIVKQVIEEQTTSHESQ

JAK3 = biological target: T2, JAK3 (Homo sapiens, UniProt P52333)
T2 sequence (P52333 1-1124): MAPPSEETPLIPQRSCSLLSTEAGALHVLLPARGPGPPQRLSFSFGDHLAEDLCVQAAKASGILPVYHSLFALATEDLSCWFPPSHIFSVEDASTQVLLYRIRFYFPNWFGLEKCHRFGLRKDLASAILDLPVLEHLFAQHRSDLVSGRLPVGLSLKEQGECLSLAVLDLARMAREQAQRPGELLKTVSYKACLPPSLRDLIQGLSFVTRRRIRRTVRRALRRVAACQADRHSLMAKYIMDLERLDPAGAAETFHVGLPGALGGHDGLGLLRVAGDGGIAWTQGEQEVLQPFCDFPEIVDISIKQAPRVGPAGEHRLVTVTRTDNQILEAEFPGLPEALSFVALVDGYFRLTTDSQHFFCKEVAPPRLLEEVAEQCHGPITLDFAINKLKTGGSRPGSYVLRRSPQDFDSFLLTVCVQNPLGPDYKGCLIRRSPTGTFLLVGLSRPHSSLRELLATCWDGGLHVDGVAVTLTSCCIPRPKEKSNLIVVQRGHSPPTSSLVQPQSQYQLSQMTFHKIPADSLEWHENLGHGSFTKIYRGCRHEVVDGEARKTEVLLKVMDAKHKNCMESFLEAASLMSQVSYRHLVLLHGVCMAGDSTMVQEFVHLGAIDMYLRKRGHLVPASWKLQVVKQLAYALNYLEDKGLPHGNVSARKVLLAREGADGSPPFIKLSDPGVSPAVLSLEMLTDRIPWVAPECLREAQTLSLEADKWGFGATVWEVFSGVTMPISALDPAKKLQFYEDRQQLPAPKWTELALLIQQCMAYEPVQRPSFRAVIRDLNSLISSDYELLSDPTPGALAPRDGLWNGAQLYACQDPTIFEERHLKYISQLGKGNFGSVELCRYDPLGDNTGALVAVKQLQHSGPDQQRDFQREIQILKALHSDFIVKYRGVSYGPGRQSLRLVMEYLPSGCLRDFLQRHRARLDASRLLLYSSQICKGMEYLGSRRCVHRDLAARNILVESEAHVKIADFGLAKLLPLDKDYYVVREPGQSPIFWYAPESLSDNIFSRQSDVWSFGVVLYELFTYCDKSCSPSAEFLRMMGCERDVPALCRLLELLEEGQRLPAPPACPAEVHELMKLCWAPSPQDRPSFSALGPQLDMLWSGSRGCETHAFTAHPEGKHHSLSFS

JAK2 JH1 JH2 = biological target: T3, JAK2 JH1 JH2 (Homo sapiens, UniProt O60674)
T3 construct: JH1 JH2

SYK = SYK (Homo sapiens, UniProt P43405)
GSK3B (GSK3 beta) = GSK3B (GSK3 beta) (Homo sapiens, UniProt P49841)
IRAK4 = biological target: T4, IRAK4 (Homo sapiens, UniProt Q9NWZ3)
T4 sequence (Q9NWZ3 1-460): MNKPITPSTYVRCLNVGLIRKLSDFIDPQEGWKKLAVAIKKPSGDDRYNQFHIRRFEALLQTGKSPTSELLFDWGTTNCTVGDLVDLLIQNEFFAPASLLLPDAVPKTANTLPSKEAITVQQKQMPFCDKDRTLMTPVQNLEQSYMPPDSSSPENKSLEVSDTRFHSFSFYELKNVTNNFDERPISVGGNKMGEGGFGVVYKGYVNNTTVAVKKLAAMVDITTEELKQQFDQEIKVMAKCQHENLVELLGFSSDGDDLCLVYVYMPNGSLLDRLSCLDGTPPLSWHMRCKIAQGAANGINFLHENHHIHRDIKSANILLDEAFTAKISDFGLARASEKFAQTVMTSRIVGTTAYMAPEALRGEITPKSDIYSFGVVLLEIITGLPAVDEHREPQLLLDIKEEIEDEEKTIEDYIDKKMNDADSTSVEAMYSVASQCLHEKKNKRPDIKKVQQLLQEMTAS

ALK = ALK (Homo sapiens, UniProt Q9UM73)
CSF1R (FMS) = CSF1R (FMS) (Homo sapiens, UniProt P07333)
Chain of CSF1R (FMS) (P07333 whole entry): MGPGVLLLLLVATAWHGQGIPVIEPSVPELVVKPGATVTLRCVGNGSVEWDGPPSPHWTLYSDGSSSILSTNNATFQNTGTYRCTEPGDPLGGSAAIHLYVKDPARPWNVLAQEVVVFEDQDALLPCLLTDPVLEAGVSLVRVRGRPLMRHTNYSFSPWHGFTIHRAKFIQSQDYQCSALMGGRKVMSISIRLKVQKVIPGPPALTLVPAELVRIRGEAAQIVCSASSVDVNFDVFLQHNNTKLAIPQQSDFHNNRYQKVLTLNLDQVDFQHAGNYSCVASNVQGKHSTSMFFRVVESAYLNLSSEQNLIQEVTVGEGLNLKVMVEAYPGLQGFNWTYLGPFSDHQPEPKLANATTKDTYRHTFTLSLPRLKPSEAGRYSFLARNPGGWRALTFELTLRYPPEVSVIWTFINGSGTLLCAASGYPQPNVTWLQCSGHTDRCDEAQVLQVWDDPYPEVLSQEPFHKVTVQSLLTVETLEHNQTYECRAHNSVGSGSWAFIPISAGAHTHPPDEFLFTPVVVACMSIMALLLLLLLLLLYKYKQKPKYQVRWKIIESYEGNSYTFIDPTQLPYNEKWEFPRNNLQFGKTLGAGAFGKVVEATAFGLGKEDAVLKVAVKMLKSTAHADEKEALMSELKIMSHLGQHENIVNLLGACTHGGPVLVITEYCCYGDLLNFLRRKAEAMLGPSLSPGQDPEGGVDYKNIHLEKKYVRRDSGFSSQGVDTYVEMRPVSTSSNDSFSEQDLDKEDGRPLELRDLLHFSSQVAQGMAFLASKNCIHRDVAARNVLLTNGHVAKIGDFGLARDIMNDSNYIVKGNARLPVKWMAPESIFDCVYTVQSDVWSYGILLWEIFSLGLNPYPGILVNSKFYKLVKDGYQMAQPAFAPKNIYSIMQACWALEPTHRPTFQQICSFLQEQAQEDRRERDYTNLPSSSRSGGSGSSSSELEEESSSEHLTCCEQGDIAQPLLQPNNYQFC

Chain of GSK3B (GSK3 beta) (P49841 whole entry): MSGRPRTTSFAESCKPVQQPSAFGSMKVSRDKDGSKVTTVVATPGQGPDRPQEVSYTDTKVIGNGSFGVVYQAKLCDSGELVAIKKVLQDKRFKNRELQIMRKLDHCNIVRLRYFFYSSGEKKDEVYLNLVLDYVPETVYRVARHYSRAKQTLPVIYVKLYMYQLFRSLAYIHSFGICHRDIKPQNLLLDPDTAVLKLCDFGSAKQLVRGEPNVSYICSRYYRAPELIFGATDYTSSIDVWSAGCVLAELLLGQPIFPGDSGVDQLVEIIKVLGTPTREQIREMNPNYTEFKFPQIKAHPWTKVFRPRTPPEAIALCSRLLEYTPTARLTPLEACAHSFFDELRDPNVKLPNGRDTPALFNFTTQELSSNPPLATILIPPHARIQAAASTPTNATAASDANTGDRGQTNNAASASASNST
Chain of ALK (Q9UM73 whole entry): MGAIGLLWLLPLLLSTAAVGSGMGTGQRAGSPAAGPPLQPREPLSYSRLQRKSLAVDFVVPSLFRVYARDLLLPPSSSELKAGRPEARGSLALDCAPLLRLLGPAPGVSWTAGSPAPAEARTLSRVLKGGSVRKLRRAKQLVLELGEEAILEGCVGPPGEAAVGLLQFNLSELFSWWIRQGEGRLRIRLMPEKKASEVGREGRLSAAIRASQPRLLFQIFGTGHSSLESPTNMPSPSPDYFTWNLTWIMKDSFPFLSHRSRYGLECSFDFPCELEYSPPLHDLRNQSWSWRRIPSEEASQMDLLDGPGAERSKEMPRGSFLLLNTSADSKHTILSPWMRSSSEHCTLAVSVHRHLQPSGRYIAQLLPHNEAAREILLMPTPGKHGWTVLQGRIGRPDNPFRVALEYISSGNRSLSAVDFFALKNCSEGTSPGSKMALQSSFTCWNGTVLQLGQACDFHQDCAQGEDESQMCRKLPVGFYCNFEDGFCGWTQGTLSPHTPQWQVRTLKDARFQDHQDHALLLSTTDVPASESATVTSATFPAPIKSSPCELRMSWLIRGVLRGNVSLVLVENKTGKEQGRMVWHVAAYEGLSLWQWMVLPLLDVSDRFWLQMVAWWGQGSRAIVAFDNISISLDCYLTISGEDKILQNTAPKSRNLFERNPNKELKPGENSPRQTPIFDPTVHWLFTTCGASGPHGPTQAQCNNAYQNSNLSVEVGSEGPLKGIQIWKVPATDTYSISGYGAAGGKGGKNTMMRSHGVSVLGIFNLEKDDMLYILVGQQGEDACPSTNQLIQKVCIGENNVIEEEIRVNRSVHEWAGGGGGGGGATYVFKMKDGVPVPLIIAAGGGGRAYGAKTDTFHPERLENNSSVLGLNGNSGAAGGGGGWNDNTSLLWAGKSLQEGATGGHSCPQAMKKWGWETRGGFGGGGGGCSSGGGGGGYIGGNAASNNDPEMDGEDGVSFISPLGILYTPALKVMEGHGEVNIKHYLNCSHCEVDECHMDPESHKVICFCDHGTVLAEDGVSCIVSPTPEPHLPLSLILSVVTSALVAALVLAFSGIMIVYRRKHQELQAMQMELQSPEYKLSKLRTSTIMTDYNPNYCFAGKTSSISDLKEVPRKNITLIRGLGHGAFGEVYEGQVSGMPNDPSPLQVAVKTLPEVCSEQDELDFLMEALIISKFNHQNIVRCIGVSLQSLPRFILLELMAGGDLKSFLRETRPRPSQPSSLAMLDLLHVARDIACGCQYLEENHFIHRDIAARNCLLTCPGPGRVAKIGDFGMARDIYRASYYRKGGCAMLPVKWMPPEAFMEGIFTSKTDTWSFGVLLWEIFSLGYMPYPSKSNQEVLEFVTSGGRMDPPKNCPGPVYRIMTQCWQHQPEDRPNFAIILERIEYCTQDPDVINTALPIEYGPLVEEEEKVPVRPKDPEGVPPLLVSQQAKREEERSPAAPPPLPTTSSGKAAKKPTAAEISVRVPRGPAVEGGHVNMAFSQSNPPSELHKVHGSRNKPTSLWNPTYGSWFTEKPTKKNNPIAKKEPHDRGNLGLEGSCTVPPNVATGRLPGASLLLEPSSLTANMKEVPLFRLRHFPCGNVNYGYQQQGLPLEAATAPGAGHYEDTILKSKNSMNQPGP
T3 sequence (O60674 whole entry): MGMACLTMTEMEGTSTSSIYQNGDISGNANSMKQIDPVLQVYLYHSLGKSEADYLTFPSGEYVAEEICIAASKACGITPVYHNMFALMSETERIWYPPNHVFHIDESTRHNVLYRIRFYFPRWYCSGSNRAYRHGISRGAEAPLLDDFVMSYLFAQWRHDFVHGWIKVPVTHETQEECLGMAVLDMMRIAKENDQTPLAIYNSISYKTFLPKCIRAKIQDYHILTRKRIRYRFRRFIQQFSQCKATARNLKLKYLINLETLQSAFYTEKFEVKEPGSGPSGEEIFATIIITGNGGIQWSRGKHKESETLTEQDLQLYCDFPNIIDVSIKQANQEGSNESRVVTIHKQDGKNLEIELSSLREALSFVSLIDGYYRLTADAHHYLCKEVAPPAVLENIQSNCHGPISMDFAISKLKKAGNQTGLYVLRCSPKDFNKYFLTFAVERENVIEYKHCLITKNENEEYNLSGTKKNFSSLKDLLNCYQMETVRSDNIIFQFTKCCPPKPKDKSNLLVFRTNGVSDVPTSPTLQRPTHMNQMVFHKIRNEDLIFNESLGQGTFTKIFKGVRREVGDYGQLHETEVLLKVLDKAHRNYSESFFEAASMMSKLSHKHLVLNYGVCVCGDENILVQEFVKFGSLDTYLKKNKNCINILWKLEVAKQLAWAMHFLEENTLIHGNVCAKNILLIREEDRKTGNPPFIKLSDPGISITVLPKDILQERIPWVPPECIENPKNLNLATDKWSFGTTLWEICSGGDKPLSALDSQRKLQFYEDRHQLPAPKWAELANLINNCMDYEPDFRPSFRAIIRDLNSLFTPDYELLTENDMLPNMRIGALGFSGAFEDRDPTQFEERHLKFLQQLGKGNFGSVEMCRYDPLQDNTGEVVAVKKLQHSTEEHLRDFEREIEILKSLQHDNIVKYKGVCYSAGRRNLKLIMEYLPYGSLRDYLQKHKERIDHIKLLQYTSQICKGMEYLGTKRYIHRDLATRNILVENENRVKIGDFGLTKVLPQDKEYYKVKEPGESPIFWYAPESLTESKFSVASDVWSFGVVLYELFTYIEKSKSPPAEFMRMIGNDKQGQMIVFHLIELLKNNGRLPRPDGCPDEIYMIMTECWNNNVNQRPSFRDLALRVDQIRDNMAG

## CS(=O)(=O)Nc1cccc(-c2csc(NC(=O)CSc3nc4nccnc4c(=O)n3CCc3ccccc3)n2)c1 [compound 3, PITCOIN3]
MAPKAPK5 (PRAK)
  inhibition at 1 µM: -3.78%
  inhibition at 3 µM: 2.14%
  inhibition at 10 µM: -2.49%
JAK3
  inhibition at 1 µM: 1.86%
  inhibition at 3 µM: -1.56%
  inhibition at 10 µM: -1.58%
JAK2 JH1 JH2
  inhibition at 1 µM: 0.755%
  inhibition at 3 µM: 0.839%
  inhibition at 10 µM: 1.69%
SYK
  inhibition at 1 µM: 0.0373%
  inhibition at 3 µM: 3.51%
  inhibition at 10 µM: 6.6%
GSK3B (GSK3 beta)
  inhibition at 1 µM: -0.953%
  inhibition at 3 µM: -1.98%
  inhibition at 10 µM: -4.59%
IRAK4
  inhibition at 1 µM: 15.2%
  inhibition at 3 µM: 4.2%
  inhibition at 10 µM: 9.92%
ALK
  inhibition at 1 µM: 17.2%
  inhibition at 3 µM: 10.4%
  inhibition at 10 µM: 10.9%
CSF1R (FMS)
  inhibition at 1 µM: 10.1%
  inhibition at 3 µM: 14%
  inhibition at 10 µM: 13.3%

## O=C(CSc1nc2nccnc2c(=O)n1CCc1ccccc1)Nc1nccs1 [compound 1, PITCOIN1]
MAPKAPK5 (PRAK)
  inhibition at 1 µM: -1.38%
  inhibition at 3 µM: 1.26%
  inhibition at 10 µM: 0.194%
JAK3
  inhibition at 1 µM: -0.818%
  inhibition at 3 µM: -2.14%
  inhibition at 10 µM: 0.865%
JAK2 JH1 JH2
  inhibition at 1 µM: -0.97%
  inhibition at 3 µM: -0.0652%
  inhibition at 10 µM: -0.468%
SYK
  inhibition at 1 µM: 2.84%
  inhibition at 3 µM: 2.83%
  inhibition at 10 µM: -0.59%
GSK3B (GSK3 beta)
  inhibition at 1 µM: 2.87%
  inhibition at 3 µM: 1.81%
  inhibition at 10 µM: 2.24%
IRAK4
  inhibition at 1 µM: 10.7%
  inhibition at 3 µM: 2.87%
  inhibition at 10 µM: 6.89%
ALK
  inhibition at 1 µM: 8.08%
  inhibition at 3 µM: 8.57%
  inhibition at 10 µM: 8.82%
CSF1R (FMS)
  inhibition at 1 µM: 12.1%
  inhibition at 3 µM: 7.54%
  inhibition at 10 µM: 7.66%

Reference: article PMC7613998, “Development of selective inhibitors of phosphatidylinositol 3-kinase C2α” (Nature Chemical Biology, 2022)
